The test system of one data set is transgenic hDAT 1°HRs. Kind of data set: Toxicity of DA-ergic toxins, trypan blue staining, transgenic hairy roots. As to conditions: for cells killed by toxin exposure: 24 h, 6-OHDA 50 uM, MPTP 100 μM, MPP+ 100 μM. The source says: (§1) Trypan blue staining for toxicity was quantified using ImageJ software. […] Since MPTP is converted to the its cytotoxic metabolite, MPP+, by oxidases, biosynthesis of oxidase inhibitors would also confer a survival advantage if MPTP were chosen as a selection agent (monoamine oxidase inhibitors prevent MPTP toxicity in SH-SY5Y neuroblastoma cells).

The test system of a further data set is Non-transgenic 1°HRs. Kind of data set: Toxicity of DA-ergic toxins, trypan blue staining, non-transgenic hairy roots. Format: cell-based, Lobelia cardinalis. As to conditions: 6-OHDA 50 uM, MPTP 100 μM, MPP+ 100 μM.
From the text: as §1

A short description of data set [1]: DPPH free radical scavenging assay. As to conditions: read-out: IC50, inhibition of DPPH free radical activity. The text has this:
(§2) Lobinaline was purified from a methanol extract prepared from dried aerial portions of L. cardinalis. The methanolic extract was dried under vacuum, resuspended in water, and defatted with hexane. The hexane phase was removed, and the remaining aqueous phase was partitioned with chloroform. The chloroform phase was collected, dried under vacuum, and lobinaline was purified from this fraction by acid/base extraction to yield lobinaline of ˜95% purity (single peak and spectroscopic authenticity by GC-MS). This compound was then dissolved in DMSO and used in aqueous solution to evaluate its effects on the dopamine transporter and nicAChRs, both in rat brain preparations and in the human dopaminergic neuroblastoma cell line SH-SY5Y. Antioxidant activity of lobinaline was evaluated using the dipheny picryl hydrazyl free radical scavenging assay.
Stable free radical diphenyl picryl hydrazyl (DPPH) scavenging was used to assess anti-oxidant activity.
Dried methanolic extracts prepared from individual L. cardinalis hairy roots were dissolved in assay buffer and tested for (a) concentration-dependent effects on [^3H]-DA uptake into rat striatal synaptosomes, (b) quenching stable DPPH radical, as measured by absorbance at 517 nm. The results are presented as “lobinaline equivalents” calculated from pure lobinaline concentration response curves (FIG. 1). […]
Background: Loss of DPPH colour is used to gauge radical scavenging.

Data set [2] concerns the target nicAChRs. Kind of data set: nicAChR binding: inhibition of [3H]-epibatidine binding. As to conditions: non-subtype selective radioligand. Also noted: species or system rat.
From the text: as §2
(§3) It is therefore relatively non-selective, whereas almost all known plant alkaloids are relatively selective for the […] nicAChR.

The next data set has as its target T1, alpha7 nicAChR (Rattus norvegicus, UniProt Q05941).
T1 construct: from tissue; host or cells: rat brain preparation (inferred)
Kind of data set: nicAChR binding: inhibition of [3H]-MLA binding. As to conditions: alpha7 selective ligand.
From the text: as §2, §3

Data set [3] addresses T2, dopamine transporter (DAT) (Rattus norvegicus, UniProt P23977).
T2 construct: from tissue; host or cells: rat striatal synaptosomes
Kind of data set: [3H]-dopamine uptake into rat striatal synaptosomes. Format: biochemical.

In another data set the target is T3, DAT (Rattus norvegicus, UniProt P23977).
T3 construct: from tissue; host or cells: rat striatal membranes
Kind of data set: [3H]-GBR12935 specific binding to rat striatal membranes. The text has this: (§4) The low affinity binding of lobinaline to this site on the DAT may therefore not be directly related to its functional effect.

The next data set deals with SH-SY5Y cells. Briefly: MPP+ toxicity on SH-SY5Y cells. Format: cell-based, human.
From the text: as §2, §4

Data set [4] has as its system nicAChRs. Briefly: [3H]-dopamine release from rat brain striatal slices. Format: biochemical.
The conditions of data set [5]: mice; compared with lobeline; cited from earlier work.
For data set [6] the following is noted: PubChem; cited from earlier work.

Broadly, the pIC50 is the negative decadic logarithm of the IC50, by convention in mol/L. The pKi is the negative decadic logarithm of the Ki, by convention in mol/L. Usually Log P stands for the decadic logarithm of the partition coefficient of the neutral form, usually between octanol and water.

SMILES strings stand for the structures. pIC50, pKi: −log10 of the molar value.

T3 sequence (P23977 whole entry): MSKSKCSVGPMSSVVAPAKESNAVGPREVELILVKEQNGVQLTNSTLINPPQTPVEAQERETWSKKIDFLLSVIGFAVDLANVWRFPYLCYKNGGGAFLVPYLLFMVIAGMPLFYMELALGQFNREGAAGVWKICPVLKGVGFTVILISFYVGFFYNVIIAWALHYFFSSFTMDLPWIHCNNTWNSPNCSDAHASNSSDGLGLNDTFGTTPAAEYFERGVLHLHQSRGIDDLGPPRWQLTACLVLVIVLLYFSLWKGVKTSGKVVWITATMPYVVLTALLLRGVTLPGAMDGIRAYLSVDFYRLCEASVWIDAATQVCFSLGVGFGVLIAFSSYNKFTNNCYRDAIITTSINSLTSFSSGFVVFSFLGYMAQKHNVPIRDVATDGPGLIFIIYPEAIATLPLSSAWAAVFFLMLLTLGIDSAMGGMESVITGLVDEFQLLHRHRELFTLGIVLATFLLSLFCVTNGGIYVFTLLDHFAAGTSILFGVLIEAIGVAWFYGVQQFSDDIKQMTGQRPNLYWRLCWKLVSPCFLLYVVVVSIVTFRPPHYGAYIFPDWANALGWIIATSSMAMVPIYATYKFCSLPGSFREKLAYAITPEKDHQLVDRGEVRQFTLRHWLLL
T2 sequence (P23977 whole entry): as above
T1 sequence (Q05941 23-502): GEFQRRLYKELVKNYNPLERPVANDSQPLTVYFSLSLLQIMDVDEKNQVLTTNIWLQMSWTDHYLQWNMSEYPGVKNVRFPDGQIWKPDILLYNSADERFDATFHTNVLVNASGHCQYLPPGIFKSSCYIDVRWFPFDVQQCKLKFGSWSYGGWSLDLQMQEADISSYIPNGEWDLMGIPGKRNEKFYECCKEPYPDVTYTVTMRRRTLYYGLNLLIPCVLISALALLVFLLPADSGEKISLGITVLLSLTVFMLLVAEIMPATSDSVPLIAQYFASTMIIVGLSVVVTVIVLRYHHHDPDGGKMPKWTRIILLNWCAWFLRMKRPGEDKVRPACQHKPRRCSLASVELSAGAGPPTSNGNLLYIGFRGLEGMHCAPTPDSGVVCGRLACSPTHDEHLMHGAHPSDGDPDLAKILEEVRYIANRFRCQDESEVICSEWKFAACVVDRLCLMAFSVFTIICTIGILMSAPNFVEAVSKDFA

`Fc1ccc(C(OCCN2CCN(CCCc3ccccc3)CC2)c2ccc(F)cc2)cc1` [GBR12909]: the “inhibition of toxin cytotoxicity” value with transgenic hDAT 1°HRs (toxins 6-OHDA, MPTP or MPP+) is on record as “inhibited”.
As for `NCCc1cc(O)c(O)cc1O` [6-OHDA], the “cells killed by toxin exposure” value in the data set on transgenic hDAT 1°HRs is on record as around 50%. Also, the “damage by toxin exposure” value in the data set with Non-transgenic 1°HRs is “not significantly damaged”.
Turning to `O=c1c(O)c(-c2ccc(O)c(O)c2)oc2cc(O)cc(O)c12` [quercetin, reference compound], the pIC50 in data set [1] was 4.95.
`CN1CCCC2C(c3ccccc3)C(C3=NCCCC3)C(c3ccccc3)CC21` (stereo not shown) [lobinaline]: the pKi is 4.76 on nicAChRs [2]; 3.98 at alpha7 nicAChR; 4.05 at DAT (read-out: Ki, inhibition of [3H]-GBR12935 specific binding). Besides, in data set [3], the “maximum inhibition of dopamine uptake” value was determined as 85.25%. Besides, the pIC50 in data set [3] (read-out: IC50, inhibition of [3H]-dopamine uptake) was 4.92; in data set [1], 4.68. Besides, the “inhibition of [3H]-GBR12935 specific binding (extent)” value on DAT is “completely inhibited”. For the same compound, the “concentration inhibiting the toxicity of MPP+” value in the data set with SH-SY5Y cells is around 100 µM. The “effect on DA release induced by nicotine” value with nicAChRs [4] (10 μM nicotine) is “reduced the DA release”. Also, the “mammalian toxicity (LD50)” value in [5] is given as “low mammalian toxicity”. Also, the “Hydrogen Bond Acceptors” value in [6] is listed as 2. Further, in [6], the “Hydrogen Bond Donors” value is 0. Moreover, the “Log P” value in data set [6] is listed as 4.8.
As for `CN1CC=C(c2ccccc2)CC1` [MPTP], the “cells killed by toxin exposure” value in the data set with transgenic hDAT 1°HRs is around 50%. Moreover, in the data set on Non-transgenic 1°HRs, the “damage by toxin exposure” value is on record as “not significantly damaged”.
In the case of `C[n+]1ccc(-c2ccccc2)cc1` [MPP+], in the data set with transgenic hDAT 1°HRs, the “cells killed by toxin exposure” value was around 50%. Further, the “damage by toxin exposure” value in the data set with Non-transgenic 1°HRs is on record as “not significantly damaged”.
As for `CNC1(C)C2CCC(C2)C1(C)C` (stereo not shown) [mecamylamine, reference compound], the “inhibition of the initial phase of [3H] release caused by the lobinaline-containing fraction” value in the data set on nicAChRs [4] (10 μM mecamylamine) is “almost completely inhibited”.

(Values after patent US9758788B2, “Mutagenesis of plants for overproduction of selective estrogen receptor modulators” (Naprogenix, Inc., priority 2014, dated 2017).)
